Reference: patent US7959904B2, “Delivery of medicaments to the nail” (University of Mississippi, priority 2001, dated 2011)

Assay: Permeability study through full thickness nail plates in modified Franz diffusion cells
Type: in vitro ADME, human
Details: for Total permeation of drug through nail plates: phosphate buffer pH 7.2 / 0.5% Brij 58 donor, after 48 hours
Experimental: Example 6 examines permeability of the medicament into the nail. For this Example, ketoconazole is utilized as a model drug to perform permeability studies. The drug is dissolved in two different media for testing which functioned as the donor solution. The first is an isotonic phosphate buffer solution (pH 7.2) with 0.5% Brij 58 as a solubilizer. The second is an 80:20 methanol/water solution buffered to pH 7.2. The receptor media is the same as the donor media without dissolved drug in both cases.
A system employing 9 modified glass Franz diffusion cells is used. Full thickness nail plates are sandwiched between two polypropylene adapters with an O-ring and were mounted on the individual cells with the dorsal nail plate facing the donor compartment (receptor volume 5.2 ml; donor surface area 0.5 cm^2). The receptor fluid is maintained at 37±0.5° C. and is continuously stirred with a magnetic bar. The donor solutions are applied to the dorsal nail surface following a one hour hydration period. Samples of the receptor phase are withdrawn at predetermined time intervals (for up to 48 hours) and immediately replaced with fresh […]. Analysis of the samples is corrected for previous drug removed. The receptor and donor compartments are sealed with a sheet of aluminum foil and wrapped with parafilm. The hermeticity of the system was continuously monitored. Drug content in the receptor media is determined using high performance liquid chromatography.

CC(=O)N1CCN(c2ccc(OCC3COC(Cn4ccnc4)(c4ccc(Cl)cc4Cl)O3)cc2)CC1 (stereo not drawn) [ketoconazole]
Greater total permeation, etched vs nonetched nail (80:20 methanol/water buffered to pH 7.2 donor): ~3 fold
Total permeation of drug through nail (80:20 methanol/water buffered to pH 7.2 donor, etched nail): 6,191±323.3 μg/cm^2
Total permeation of drug through nail (80:20 methanol/water buffered to pH 7.2 donor, nonetched nail): 2,497±237 μg/cm^2
Total permeation of drug through nail plates (etched nail plates): 1,873 (±155) μg/cm^2
Total permeation of drug through nail plates (unetched nail plates): 446 (±51) μg/cm^2
Difference in total permeation, etched vs unetched nail (phosphate buffer/Brij 58 donor, 48 hours): ~4 fold
